Experimental data as given in the supplement of paper PMC10307832.

How the values were obtained:
Test in all cases: relative viability (nuclei count vs DMSO), 5 days (fraction); higher = more cells survive
BEN = system: BEN
Outline: (§1)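 Cells from lung cancer lines were seeded into 1536-well plates and, one day later, dosed by pin tool. Treatments were either a single drug or a fixed dose of an anchor drug with five library-drug doses (not always all listed) in √10 steps. After 5 days, nuclei were stained in a one-step fixation (final 0.05% Triton X-100, 1% formaldehyde, 1 ug/ml Hoechst) and counted on 4× images, and relative viability is the treated-to-vehicle nuclei ratio, as the median of duplicate plates.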

ChaGo-K-1 = system: ChaGo-K-1
Outline: as §1

EKVX = system: EKVX
Outline: as §1

HCC-827 = system: HCC-827
Outline: as §1

HOP-62 = system: HOP-62
Outline: as §1

LCLC-103H = system: LCLC-103H
Outline: as §1

LK-2 = system: LK-2
Outline: as §1

LOU-NH91 = system: LOU-NH91
Outline: as §1

LXF-289 = system: LXF-289
Outline: as §1

NCI-H1355 = system: NCI-H1355
Outline: as §1

NCI-H1437 = system: NCI-H1437
Outline: as §1

NCI-H1666 = system: NCI-H1666
Outline: as §1

NCI-H1944 = system: NCI-H1944
Outline: as §1

NCI-H1993 = system: NCI-H1993
Outline: as §1

NCI-H2126 = system: NCI-H2126
Outline: as §1

NCI-H2170 = system: NCI-H2170
Outline: as §1

NCI-H441 = system: NCI-H441
Outline: as §1

NCI-H647 = system: NCI-H647
Outline: as §1

NCI-H661 = system: NCI-H661
Outline: as §1

PC-14 = system: PC-14
Outline: as §1

RERF-LC-KJ = system: RERF-LC-KJ
Outline: as §1

SK-MES-1 = system: SK-MES-1
Outline: as §1

CCNC(=O)c1noc(-c2cc(C(C)C)c(O)cc2O)c1-c1ccc(CN2CCOCC2)cc1 [Luminespib] + Nc1nc2[nH]cc(CCc3ccc(C(=O)N[C@@H](CCC(=O)O)C(=O)O)cc3)c2c(=O)[nH]1 [Pemetrexed] (partner 0.2 µM) was tested, and the relative viability (BEN; first compound 0.002 µM) was 0.805, the relative viability (BEN; first compound 0.006325 µM) was 0.584 and the relative viability (BEN; first compound 0.02 µM) was 0.463. It also gave a relative viability (BEN; first compound 0.06325 µM) of 0.5, a relative viability (BEN; first compound 0.2 µM) of 0.252 and a relative viability (ChaGo-K-1; first compound 0.002 µM) of 0.27. The relative viability (ChaGo-K-1; first compound 0.006325 µM) was 0.253, the relative viability (ChaGo-K-1; first compound 0.02 µM) was 0.253 and the relative viability (ChaGo-K-1; first compound 0.06325 µM) was 0.248. It also gave a relative viability (ChaGo-K-1; first compound 0.2 µM) of 0.206, a relative viability (EKVX; first compound 0.002 µM) of 0.417 and a relative viability (EKVX; first compound 0.006325 µM) of 0.255. The relative viability (EKVX; first compound 0.02 µM) was 0.408, the relative viability (EKVX; first compound 0.06325 µM) was 0.258 and the relative viability (EKVX; first compound 0.2 µM) was 0.115. It also gave a relative viability (HCC-827; first compound 0.002 µM) of 0.22, a relative viability (HCC-827; first compound 0.006325 µM) of 0.27 and a relative viability (HCC-827; first compound 0.02 µM) of 0.236. It also gave a relative viability (HCC-827; first compound 0.06325 µM) of 0.159, a relative viability (HCC-827; first compound 0.2 µM) of 0.158 and a relative viability (HOP-62; first compound 0.002 µM) of 0.314. The relative viability (HOP-62; first compound 0.006325 µM) was 0.4, the relative viability (HOP-62; first compound 0.02 µM) was 0.34 and the relative viability (HOP-62; first compound 0.06325 µM) was 0.156. The relative viability (HOP-62; first compound 0.2 µM) was 0.125, the relative viability (LCLC-103H; first compound 0.002 µM) was 0.441 and the relative viability (LCLC-103H; first compound 0.006325 µM) was 0.445. It also gave a relative viability (LCLC-103H; first compound 0.02 µM) of 0.535, a relative viability (LCLC-103H; first compound 0.06325 µM) of 0.486 and a relative viability (LCLC-103H; first compound 0.2 µM) of 0.472. The relative viability (LK-2; first compound 0.002 µM) was 0.299, the relative viability (LK-2; first compound 0.006325 µM) was 0.159 and the relative viability (LK-2; first compound 0.02 µM) was 0.221. It also gave a relative viability (LK-2; first compound 0.06325 µM) of 0.0902, a relative viability (LK-2; first compound 0.2 µM) of 0.0524 and a relative viability (LOU-NH91; first compound 0.002 µM) of 0.426. It also gave a relative viability (LOU-NH91; first compound 0.006325 µM) of 0.36, a relative viability (LOU-NH91; first compound 0.02 µM) of 0.539 and a relative viability (LOU-NH91; first compound 0.06325 µM) of 0.339. The relative viability (LOU-NH91; first compound 0.2 µM) was 0.324, the relative viability (LXF-289; first compound 0.002 µM) was 0.91 and the relative viability (LXF-289; first compound 0.006325 µM) was 0.915. It also gave a relative viability (LXF-289; first compound 0.02 µM) of 1.09, a relative viability (LXF-289; first compound 0.06325 µM) of 0.333 and a relative viability (LXF-289; first compound 0.2 µM) of 0.136. The relative viability (NCI-H1355; first compound 0.002 µM) was 1.12, the relative viability (NCI-H1355; first compound 0.006325 µM) was 1.02 and the relative viability (NCI-H1355; first compound 0.02 µM) was 0.627. It also gave a relative viability (NCI-H1355; first compound 0.06325 µM) of 0.895, a relative viability (NCI-H1355; first compound 0.2 µM) of 0.14 and a relative viability (NCI-H1437; first compound 0.002 µM) of 0.305. For the same compound, the relative viability (NCI-H1437; first compound 0.006325 µM) was 0.305, the relative viability (NCI-H1437; first compound 0.02 µM) was 0.347 and the relative viability (NCI-H1437; first compound 0.06325 µM) was 0.266. For the same compound, the relative viability (NCI-H1437; first compound 0.2 µM) was 0.156, the relative viability (NCI-H1666; first compound 0.002 µM) was 0.876 and the relative viability (NCI-H1666; first compound 0.006325 µM) was 0.799. It also gave a relative viability (NCI-H1666; first compound 0.02 µM) of 0.908, a relative viability (NCI-H1666; first compound 0.06325 µM) of 0.833 and a relative viability (NCI-H1666; first compound 0.2 µM) of 0.911. For the same compound, the relative viability (NCI-H1944; first compound 0.002 µM) was 0.636, the relative viability (NCI-H1944; first compound 0.006325 µM) was 0.602 and the relative viability (NCI-H1944; first compound 0.02 µM) was 0.477. The relative viability (NCI-H1944; first compound 0.06325 µM) was 0.258, the relative viability (NCI-H1944; first compound 0.2 µM) was 0.149 and the relative viability (NCI-H1993; first compound 0.002 µM) was 0.566. For the same compound, the relative viability (NCI-H1993; first compound 0.006325 µM) was 0.577, the relative viability (NCI-H1993; first compound 0.02 µM) was 0.557 and the relative viability (NCI-H1993; first compound 0.06325 µM) was 0.284. The relative viability (NCI-H1993; first compound 0.2 µM) was 0.367, the relative viability (NCI-H2126; first compound 0.002 µM) was 0.705 and the relative viability (NCI-H2126; first compound 0.006325 µM) was 0.626. The relative viability (NCI-H2126; first compound 0.06325 µM) was 0.479, the relative viability (NCI-H2126; first compound 0.2 µM) was 0.181 and the relative viability (NCI-H2170; first compound 0.002 µM) was 0.291. It also gave a relative viability (NCI-H2170; first compound 0.006325 µM) of 0.267, a relative viability (NCI-H2170; first compound 0.06325 µM) of 0.219 and a relative viability (NCI-H2170; first compound 0.2 µM) of 0.141. For the same compound, the relative viability (NCI-H441; first compound 0.002 µM) was 0.263, the relative viability (NCI-H441; first compound 0.006325 µM) was 0.309 and the relative viability (NCI-H441; first compound 0.02 µM) was 0.248. For the same compound, the relative viability (NCI-H441; first compound 0.06325 µM) was 0.153, the relative viability (NCI-H441; first compound 0.2 µM) was 0.116 and the relative viability (NCI-H647; first compound 0.002 µM) was 0.202. For the same compound, the relative viability (NCI-H647; first compound 0.006325 µM) was 0.189, the relative viability (NCI-H647; first compound 0.02 µM) was 0.193 and the relative viability (NCI-H647; first compound 0.06325 µM) was 0.106. It also gave a relative viability (NCI-H647; first compound 0.2 µM) of 0.0832, a relative viability (NCI-H661; first compound 0.002 µM) of 0.921 and a relative viability (NCI-H661; first compound 0.006325 µM) of 0.863. It also gave a relative viability (NCI-H661; first compound 0.02 µM) of 0.966, a relative viability (NCI-H661; first compound 0.06325 µM) of 0.651 and a relative viability (NCI-H661; first compound 0.2 µM) of 0.318. It also gave a relative viability (PC-14; first compound 0.002 µM) of 0.148, a relative viability (PC-14; first compound 0.006325 µM) of 0.175 and a relative viability (PC-14; first compound 0.02 µM) of 0.132. The relative viability (PC-14; first compound 0.06325 µM) was 0.0853, the relative viability (PC-14; first compound 0.2 µM) was 0.0503 and the relative viability (RERF-LC-KJ; first compound 0.002 µM) was 0.474. For the same compound, the relative viability (RERF-LC-KJ; first compound 0.006325 µM) was 0.449, the relative viability (RERF-LC-KJ; first compound 0.02 µM) was 0.462 and the relative viability (RERF-LC-KJ; first compound 0.06325 µM) was 0.287. For the same compound, the relative viability (RERF-LC-KJ; first compound 0.2 µM) was 0.219, the relative viability (SK-MES-1; first compound 0.002 µM) was 0.962 and the relative viability (SK-MES-1; first compound 0.006325 µM) was 0.877. For the same compound, the relative viability (SK-MES-1; first compound 0.02 µM) was 0.517, the relative viability (SK-MES-1; first compound 0.06325 µM) was 0.153 and the relative viability (SK-MES-1; first compound 0.2 µM) was 0.177.
